Laboratory results as given in patent US8748373B2, “Hepatitis B virus compositions and methods of use” (priority 2007, dated 2014).

Experiments:
HBV [1] = details: patients chronically infected with HBV; cited from earlier work
HDV = test: Inhibition of HDV infection of primary human hepatocytes, antigenomic HDV RNA by real-time PCR; assay type: cell-based; details: for Inhibition of HDV replication: 50 nM final concentration, primary human hepatocytes, 7 days
Text: (§1) In order to test inhibitory activity of the IA and related proteins, primary human hepatocytes infected in the presence of 5% polyethylene glycol 8000 (Sigma) were used with in vitro assembled HDV at a multiplicity of 10 genome equivalents (GE) per cell, or by HBV at a multiplicity of 50 GE/cell. […] One related protein was the S1S2, lacking the Fc domain (FIG. 1B). Another was a synthetic peptide corresponding to positions 2-48 of the ayw PreS1, with myristoylation at the N terminal glycine as described in Engelke, et al., 2006, Hepatology, 43:750-760. After 7-8 days total, cell RNA was extracted and HDV antigenomic RNA and HBV RNA were quantitated using real-time PCR.
Others have shown that peptides based on the N terminus of HBV preS1 are able to interfere with infection of primary hepatocytes and of HepaRG cells, a cell line made from a differentiated liver tumor (Gripon, et al., 2005, J. Virol., 79:1613-1622, Gripon, et al., 2002, Proc. Natl. Acad. Sci., USA 99:15655-15660). […] Secreted IAs were tested for their ability to interfere with the infection of primary human hepatocytes by HDV. For these studies the source of IA was simple dilutions of the media from transiently transfected cells that both expressed and secreted the IA. To assess HDV replication the total RNA was extracted after 7 days and antigenomic RNA was quantitated by real-time PCR.

[2] = Ultracentrifugation of media to test whether released IA is a soluble protein; assay type: physicochemical; details: conditions that pellet HDV and HBV subviral particles
Text: In addition, experiments were designed to tested whether the released IA was actually a soluble protein. Media samples containing albumin and secreted […] were clarified by low speed centrifugation and then subjected to ultracentrifugation, using conditions that pellet HDV and HBV subviral particles. It was observed that about >85% of the albumin and S1S2-IA remained in the supernatant. Without wishing to be bound by any particular theory, it is believed that because the IAs behaved similar to albumin, than IAs were soluble proteins.

HBV [3] = test: Inhibition of HBV infection of primary human hepatocytes, HBV RNA by real-time PCR; assay type: cell-based, Hepatitis B virus
Text: as §1
In parallel with the experiment shown in FIG. 4B, experiments were designed to determined whether S1S2-IA would also act on HBV infection.

HBV [4] = details: in vivo; cited from earlier work

C=C1[C@H](CO)[C@@H](O)C[C@@H]1n1cnc2c(=O)[nH]c(N)nc21 [Entecavir]
Suppression of HBV levels in serum (HBV [1]): 100,000 fold

S1-IA: immunoadhesin: HBV preS1 domain (1-119, adw2) fused N terminally to Fc region of a rabbit IgG heavy chain
Inhibition of HDV replication (HDV): 90%

S1S2-IA: immunoadhesin: HBV preS1 plus preS2 domains fused to Fc region of a rabbit IgG heavy chain
Fraction remaining in the supernatant after ultracentrifugation [2]: > 85% | Inhibition of HBV infection compared with HDV infection (HBV [3]; parallel experiments): not significantly different | Inhibition of HBV infection (HBV [3]; primary human hepatocytes, HBV RNA): there was inhibition | Inhibition of HDV replication (HDV): 90% | Effect of 30 minute pretreatment on level of inhibition of HDV (HDV; pretreatment in addition to treatment during infection): did not significantly increase the level of inhibition

acylated peptide: synthetic peptide corresponding to positions 2-48 of the ayw PreS1, with myristoylation at the N terminal glycine [reference compound]
Inhibition of HDV replication compared with S1-IA and S1S2-IA (HDV; primary human hepatocytes, 2, 10 and 50 nM): more inhibition than the two IA

α-interferon
Patients in whom effective (HBV [4]): about 33%
